# Where two headings read alike, the source gives them in different places.
# Columns and labels:
# [1] = biological target: T1, CaCYP51 (Candida albicans, UniProt P10613); assay: biochemical; format: binding; settings: 3 μM native CaCYP51, mean of three replicates ± SD; read-out: K d CaCYP51
# T1 construct: made in house; host or cells: Escherichia coli
# From the text: […]. There were no signs of compound insolubility (visible or rising background absorbance) during the ligand titrations. […] […].
# The rearranged Morrison equation34 gave the best fit to the ligand saturation curves against CaCYP51 (Figure 5) indicating the selected compounds bound tightly to the purified CaCYP51 protein in free solution. Likewise the rearranged Morrison equation34 gave the best fit for binding 5 d and 5 f to Δ60HsCYP51, thus indicating tight binding in free solution (Figure 5). […].
# Recombinant CYP51 protein studies. […] All azole ligand binding determinations were performed in triplicate, except the binding of compound 12 c with Δ60HsCYP51 which was performed six times. CYP51 protein samples were diluted with 0.1 M Tris⋅HCl (pH 8.1) and 25 % (w/v) glycerol to the required concentration.
# (§1) Dissociation constant (K d). The K d for each CYP51‐azole complex was determined by non‐linear regression (Levenberg‐Marquardt algorithm) using a rearrangement of the Morrison equation for tight ligand binding.34 Where ligand binding was weaker, the Michaelis‐Menten equation was used to fit the data (Figure S5). K d values were determined for each of the three replicate titrations per azole compound and then mean K d values and standard deviations calculated.
# [2] = biological target: T1, CaCYP51; assay: biochemical; settings: for IC50: 1 μM CaCYP51, lanosterol as substrate, curve-fitted, read-out: CaCYP51 IC50; for Ki: Morrison equation estimates, read-out: Kapp/i from the inhibition profiles with CaCYP51
# Experimental: […]. […] […]. CYP51 reconstitution assays. IC50 values were determined for individual azole compounds18, 30 using lanosterol as substrate. Azoles were introduced using 2.5 μL of stock solutions in DMSO. CaCYP51 assays contained 1 μM CaCYP51 and 2 μM Homo sapiens cytochrome P450 reductase (HsCPR – UniProtKB accession number P16435) and were incubated for 20 min at 37 °C. HsCYP51 assays contained 0.25 μM Δ60HsCYP51 and 1 μM HsCPR and were incubated for 10 min at 37 °C. Each IC50 experiment was performed in duplicate.
# [3] = tested on: C. albicans SC5314; assay: MIC, CLSI M27-S4 broth dilution, strain SC5314; format: cell-based, Candida albicans; settings: Candida albicans, SC5314, 48 hours
# Experimental: The susceptibilities of the SC5314 and CA14C. albicans (azole sensitive) strains to all novel azole derivatives (5, 7 and 12) were determined (Table 3) using the standardized CLSI M27‐S4 broth dilution method.28
# Susceptibility testing of C. albicans strains. […] Stock solutions of each agent were prepared in DMSO. Further dilutions were made in RPMI‐1640, and the final concentration of DMSO was 1 % (v/v). The final testing concentrations for all compounds ranged from 0.03–16 μg mL^−1.
# [4] = biological target: T2, Δ60HsCYP51 (Homo sapiens, UniProt Q16850); assay: CYP51 reconstitution assay (IC50), Δ60HsCYP51; format: biochemical; settings: 0.25 μM Δ60HsCYP51, lanosterol as substrate; read-out: IC50 Δ60HsCYP51 (Hs)
# T2 sequence (Q16850 61-509, stated change not applied): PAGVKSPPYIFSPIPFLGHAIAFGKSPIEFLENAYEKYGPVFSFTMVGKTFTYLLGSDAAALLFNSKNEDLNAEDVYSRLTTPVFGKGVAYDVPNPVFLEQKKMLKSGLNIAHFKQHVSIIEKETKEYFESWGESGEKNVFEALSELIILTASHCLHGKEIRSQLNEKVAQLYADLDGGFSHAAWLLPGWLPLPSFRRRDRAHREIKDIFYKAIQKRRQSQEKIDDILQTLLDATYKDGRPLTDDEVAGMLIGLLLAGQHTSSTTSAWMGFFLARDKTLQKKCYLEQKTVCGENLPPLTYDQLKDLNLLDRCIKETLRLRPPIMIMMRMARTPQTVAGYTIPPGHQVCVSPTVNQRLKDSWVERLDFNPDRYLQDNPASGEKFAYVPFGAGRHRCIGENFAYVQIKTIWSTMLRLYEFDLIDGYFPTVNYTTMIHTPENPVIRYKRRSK
# T2 sequence (P16435 2-677, stated change not applied, further chain): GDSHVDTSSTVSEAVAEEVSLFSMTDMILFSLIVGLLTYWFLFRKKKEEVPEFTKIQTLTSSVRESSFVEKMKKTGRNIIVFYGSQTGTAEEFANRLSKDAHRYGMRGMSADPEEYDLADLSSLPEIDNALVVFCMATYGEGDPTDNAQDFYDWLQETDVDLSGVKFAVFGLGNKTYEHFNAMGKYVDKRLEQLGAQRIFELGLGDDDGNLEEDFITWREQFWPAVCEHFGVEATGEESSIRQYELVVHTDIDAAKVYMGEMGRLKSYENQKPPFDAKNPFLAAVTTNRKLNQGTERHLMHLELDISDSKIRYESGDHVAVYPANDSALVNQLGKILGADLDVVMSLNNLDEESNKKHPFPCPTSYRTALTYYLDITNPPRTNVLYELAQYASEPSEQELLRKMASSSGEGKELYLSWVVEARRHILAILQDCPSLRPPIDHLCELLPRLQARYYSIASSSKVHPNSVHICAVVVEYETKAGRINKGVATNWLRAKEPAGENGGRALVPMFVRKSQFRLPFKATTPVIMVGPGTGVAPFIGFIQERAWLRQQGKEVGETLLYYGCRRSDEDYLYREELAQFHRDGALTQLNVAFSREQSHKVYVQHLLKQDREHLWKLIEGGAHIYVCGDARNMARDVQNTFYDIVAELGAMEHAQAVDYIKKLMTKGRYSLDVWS
# Experimental: CYP51 reconstitution assays. […] Azoles were introduced using 2.5 μL of stock solutions in DMSO. […] Each IC50 experiment was performed in duplicate.
# [5] = tested on: C. albicans SC5314; assay: Sterol profile analysis by GC-MS, strain SC5314; format: cell-based, Candida albicans; settings: SC5314, % of total sterols, half the MIC (fluconazole 0.06, 5 d 0.06, 5 f 0.015, 12 c 0.5 μg/mL), 18 h
# Experimental: (§2) Sterols were then extracted and analysed by GC‐MS and sterol profiles (% of the total sterol extracted) were determined (Table 6).
# (§3) Sterol profile analysis of C. albicans strains. […] Cells were pelleted and washed with ddH2O and non‐saponifiable lipids were extracted using methanolic KOH as reported previously.41 Samples were dried in a vacuum centrifuge and were derivatised by the addition of 100 μL 90 % BSTFA / 10 % TMCS (Sigma), 200 μL anhydrous pyridine (Sigma) and heating for 2 h at 80 °C. TMS‐derivatised sterols were analysed and identified by using GC/MS (Thermo 1300 GC coupled to a Thermo ISQ mass spectrometer, Thermo Scientific) with reference to retention times and fragmentation spectra for known standards. GC/MS data files were analysed using Xcalibur software (Thermo Scientific) to determine sterol profiles for all isolates and to integrate peak areas.
# [6] = tested on: C. albicans CA14; assay: MIC, CLSI M27-S4 broth dilution, strain CA14; format: cell-based, Candida albicans; settings: Candida albicans, CA14, 48 hours
# Experimental: Susceptibility testing of C. albicans strains. […] Stock solutions of each agent were prepared in DMSO. […] The final testing concentrations for all compounds ranged from 0.03–16 μg mL^−1.
# [7] = tested on: C. albicans CA14; assay: Sterol profile analysis by GC-MS, strain CA14; format: cell-based, Candida albicans; settings: CA14, % of total sterols, half the MIC (fluconazole 0.06, 5 d 0.06, 5 f 0.015, 12 c 0.5 μg/mL), 18 h
# Experimental: as §2, §3
# [8] = biological target: T2, Δ60HsCYP51; assay: Azole ligand binding titration (type II difference spectra, Kd), Δ60HsCYP51; settings: for Kd: 3 μM native Δ60HsCYP51, mean ± SD (12 c n=6), read-out: K d Δ60HsCYP51 (Hs); for Type of difference binding spectra with Δ60HsCYP51: titration with Δ60HsCYP51
# Experimental: Recombinant CYP51 protein studies.
# as §1
# [9] = biological target: T2, Δ60HsCYP51; settings: cited from earlier work; for IC50: read-out: IC50 Δ60HsCYP51 (Hs), 0.4 μM Δ60HsCYP51 ref 21
# [10] = biological target: T2, Δ60HsCYP51; settings: read-out: K d Δ60HsCYP51 (Hs); cited from earlier work
# [11] = biological target: T1, CaCYP51; settings: 1 μM CaCYP51 ref 21; read-out: IC50 CaCYP51 (Ca) (converted); cited from earlier work
# T1 sequence (P10613 whole entry): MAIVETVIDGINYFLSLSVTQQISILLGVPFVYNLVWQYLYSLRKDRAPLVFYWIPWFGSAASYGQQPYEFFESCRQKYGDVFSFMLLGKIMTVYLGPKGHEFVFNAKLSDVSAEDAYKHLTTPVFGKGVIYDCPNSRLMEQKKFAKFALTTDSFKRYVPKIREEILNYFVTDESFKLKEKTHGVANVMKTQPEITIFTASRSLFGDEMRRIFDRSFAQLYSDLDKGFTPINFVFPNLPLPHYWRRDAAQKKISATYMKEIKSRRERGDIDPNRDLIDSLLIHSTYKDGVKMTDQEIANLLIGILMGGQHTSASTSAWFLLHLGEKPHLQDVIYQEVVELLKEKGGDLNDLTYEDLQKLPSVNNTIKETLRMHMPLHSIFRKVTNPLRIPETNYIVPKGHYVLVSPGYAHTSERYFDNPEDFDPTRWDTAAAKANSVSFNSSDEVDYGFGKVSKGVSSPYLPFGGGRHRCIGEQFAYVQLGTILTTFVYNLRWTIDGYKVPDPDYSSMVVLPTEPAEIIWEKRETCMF
Structure (SMILES),Kd [1] [nM],IC50 [2] [nM],Ki [2] [nM],MIC ([3]; 80 % reduction in turbidity) [µg/mL],MIC ([3]; value in brackets) [µM],IC50 [4] [nM],"Sterol composition: diol (14α‐methyl ergosta‐8,24(28)‐dien‐3,6‐diol) [5] [%]",Sterol composition: eburicol [5] [%],Sterol composition: ergosterol [5] [%],Sterol composition: lanosterol [5] [%],Sterol composition: total 14α‐methylated sterols [5] [%],MIC ([6]; 80 % reduction in turbidity) [µg/mL],MIC ([6]; value in brackets) [µM],"Sterol composition: diol (14α‐methyl ergosta‐8,24(28)‐dien‐3,6‐diol) [7] [%]",Sterol composition: eburicol [7] [%],Sterol composition: ergosterol [7] [%],Sterol composition: lanosterol [7] [%],Sterol composition: total 14α‐methylated sterols [7] [%],melting point [°C],Kd [8] [nM],further results
"O=C(NCc1ccc(Cl)cc1)C(Cn1ccnc1)c1ccc(Cl)cc1 (stereo not drawn) [Compound 5 d, N‐(4‐Chlorobenzyl)‐2‐(4‐chlorophenyl)‐3(1H‐imidazol‐1‐yl)propanamide]",17 ± 5,390,160,0.125,0.33,3370,17.6±7.1,20.5±4.4,2.7±2.3,41.0±5.5,95.8,0.125,0.33,8.2±6.0,26.4±5.0,7.8±6.5,40.4±2.2,90.0,160 to 162,45 ± 13,Type of difference binding spectra with Δ60HsCYP51 [8]: type II difference binding spectra
"O=C(NCc1ccc(Cl)cc1Cl)C(Cn1ccnc1)c1ccc(Cl)cc1 (stereo not drawn) [Compound 5 f, 2‐(4‐Chlorophenyl)‐N‐(2,4‐dichlorobenzyl)‐3‐(1H‐imidazol‐1‐yl)propanamide]",62 ± 17,460,200,< 0.03,< 0.07,3730,11.7±1.4,21.0±3.3,9.1±5.5,38.6±3.6,89.3,< 0.03,< 0.07,7.5±4.6,26.1±0.1,4.3±0.5,43.6±1.8,77.2,148 to 150,74 ± 13,Type of difference binding spectra with Δ60HsCYP51 [8]: type II difference binding spectra
"O=C(NCc1ccc(NS(=O)(=O)c2ccc(Cl)cc2)cc1)C(Cn1cncn1)c1ccccc1 (stereo not drawn) [Compound 12 c, N‐(4‐((4‐chlorophenyl)sulfonamido)benzyl)‐2‐phenyl‐3‐(1H‐1,2,4‐triazol‐1‐yl)propanamide]",43 ± 18,330,110,1,2.02,152000,7.2±5.2,14.0±3.5,24.9±5.5,34.5±2.9,70.6,1,2.02,9.2±1.2,22.4±1.1,3.5±1.3,43.6±1.5,93.3,122 to 124,923 ± 509,Type of difference binding spectra with Δ60HsCYP51 [8]: type II difference binding spectra
CCC(C)n1ncn(-c2ccc(N3CCN(c4ccc(OCC5COC(Cn6cncn6)(c6ccc(Cl)cc6Cl)O5)cc4)CC3)cc2)c1=O (stereo not drawn) [itraconazole],–,–,–,–,–,–,–,–,–,–,–,–,–,–,–,–,–,–,–,–,IC50 [9]: 70000 nM; Kd [10]: 92 nM; IC50 [11]: 400 nM
CC(=O)N1CCN(c2ccc(OCC3COC(Cn4ccnc4)(c4ccc(Cl)cc4Cl)O3)cc2)CC1 (stereo not drawn) [ketoconazole],–,–,–,–,–,–,–,–,–,–,–,–,–,–,–,–,–,–,–,–,IC50 [9]: 4500 nM; IC50 [11]: 500 nM
O[C@@](Cn1cnnn1)(c1ccc(F)cc1F)C(F)(F)c1ccc(-c2ccc(OCC(F)(F)F)cc2)cn1 [oteseconazole],–,–,–,–,–,–,–,–,–,–,–,–,–,–,–,–,–,–,–,–,Inhibition of Δ60HsCYP51 activity ([9]; at concentrations up to 50 μM ref 31): did not inhibit

# Reference: paper PMC7496091, “Small‐Molecule Inhibitors Targeting Sterol 14α‐Demethylase (CYP51): Synthesis, Molecular Modelling and Evaluation Against Candida albicans” (Chemmedchem, 2020)
